Laboratory results: US9351974B2, “Substituted pteridinones for the treatment of cancer” (OSI Pharmaceuticals, LLC, priority 2011, dated 2016)

Molecular target: T1, His-tagged full-length RSK2 (RPS6KA3) (Homo sapiens, UniProt P51812)
T1 construct: His-tagged full-length RSK2 (RPS6KA3, Invitrogen PV3323); His; purchased Invitrogen PV3323
Experiment: RSK2 Omnia Assay for compound IC50 determination
Format: biochemical
Settings: ATP 15 μM, n=2, read-out: Mean RSK2 Biochem IC50
In short: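 Initial-rate slopes from continuous kinetic reads were fitted to a four-parameter equation for IC50 (n=2). Ki was then derived by Cheng-Prusoff assuming ATP-competitive inhibition. Reactions contained 15 μM ATP (Km 16.3 μM), 5 μM Omnia ST Peptide 6, and […] in 50 mM HEPES pH 7.5, 10 mM MgCl2, 1 mM DTT, 1% DMSO. Compounds spanned 11 threefold steps, […] final.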

T1 sequence (P51812 whole entry): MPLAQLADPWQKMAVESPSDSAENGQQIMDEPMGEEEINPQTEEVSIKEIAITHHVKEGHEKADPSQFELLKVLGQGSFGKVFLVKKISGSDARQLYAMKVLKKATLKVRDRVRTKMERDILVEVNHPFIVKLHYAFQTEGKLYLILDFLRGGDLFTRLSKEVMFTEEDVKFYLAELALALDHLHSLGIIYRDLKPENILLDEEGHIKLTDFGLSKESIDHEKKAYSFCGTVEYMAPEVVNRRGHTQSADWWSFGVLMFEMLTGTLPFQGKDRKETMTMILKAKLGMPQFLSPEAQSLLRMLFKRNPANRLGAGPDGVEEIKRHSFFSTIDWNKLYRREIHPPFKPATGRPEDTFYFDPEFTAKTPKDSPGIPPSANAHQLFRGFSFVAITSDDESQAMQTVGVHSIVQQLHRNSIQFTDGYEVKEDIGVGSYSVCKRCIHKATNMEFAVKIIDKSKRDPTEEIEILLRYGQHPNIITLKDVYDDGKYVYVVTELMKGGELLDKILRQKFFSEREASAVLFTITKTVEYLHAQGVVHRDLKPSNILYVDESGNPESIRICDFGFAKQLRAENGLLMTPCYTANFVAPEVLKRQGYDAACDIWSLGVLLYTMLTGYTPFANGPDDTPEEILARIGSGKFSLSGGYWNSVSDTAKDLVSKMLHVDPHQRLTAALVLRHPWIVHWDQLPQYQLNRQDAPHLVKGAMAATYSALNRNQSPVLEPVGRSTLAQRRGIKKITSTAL

| IC50 [µM] | SMILES |
| --- | --- |
| 0.1 to 1 | CC(C)N1c2nc(Nc3ccc4c(c3)CC(=O)N4)ncc2N(c2ccccc2)C(=O)C1C (stereo not shown) [Example 94, 7-methyl-2-[(2-oxo-2,3-dihydro-1H-indol-5-yl)amino]-5-phenyl-8-(propan-2-yl)-7,8-dihydropteridin-6(5H)-one] |
| ≤ 0.1 | CC[C@@H]1C(=O)N(c2ccc(N(C)C)nc2)c2cnc(Nc3cc(F)c4[nH]ncc4c3)nc2N1C1CCCCC1 [compound 293, (7R)-8-cyclohexyl-5-[6-(dimethylamino)pyridin-3-yl]-7-ethyl-2-[(7-fluoro-1H-indazol-5-yl)amino]-7,8-dihydropteridin-6(5H)-one] |
| ≤ 0.1 | C[C@@H]1C(=O)N(c2cccc(C#N)c2)c2cnc(Nc3cc(Cl)c4[nH]ncc4c3)nc2N1C1CCCCC1 [compound 97, 3-[(7R)-2-[(7-chloro-1H-indazol-5-yl)amino]-8-cyclohexyl-7-methyl-6-oxo-7,8-dihydropteridin-5(6H)-yl]benzonitrile] |
| 0.1 to 1 | C[C@@H]1C(=O)N(c2ccc(OC(F)(F)F)cc2)c2cnc(Nc3ccc4[nH]ncc4c3)nc2N1C1CCCCC1 [Example 33, (7R)-8-cyclohexyl-2-(1H-indazol-5-ylamino)-7-methyl-5-[4-(trifluoromethoxy)phenyl]-7,8-dihydropteridin-6(5H)-one] |
| ≤ 0.1 | C[C@@H]1C(=O)N(c2cnn(C)c2)c2cnc(Nc3ccc4[nH]ncc4c3)nc2N1C1CCCCC1 [Example 58, (7R)-8-cyclohexyl-2-(1H-indazol-5-ylamino)-7-methyl-5-(1-methyl-1H-pyrazol-4-yl)-7,8-dihydropteridin-6(5H)-one] |
| 0.1 to 1 | C[C@@H]1C(=O)N(c2cccc(C#N)c2)c2cnc(Nc3ccc(O)cn3)nc2N1C1CCCCC1 [compound 168, 3-[(7R)-8-cyclohexyl-2-[(5-hydroxypyridin-2-yl)amino]-7-methyl-6-oxo-7,8-dihydropteridin-5(6H)-yl]benzonitrile] |
| ≤ 0.1 | C[C@@H]1C(=O)N(c2cccc(C#N)c2)c2cnc(Nc3ccc4[nH]ncc4c3)nc2N1C1CCCC1 [Example 69, 3-[(7R)-8-cyclopentyl-2-(1H-indazol-5-ylamino)-7-methyl-6-oxo-7,8-dihydropteridin-5(6H)-yl]benzonitrile] |
| ≤ 0.1 | C[C@@H]1C(=O)N(c2cccc(C#N)c2)c2cnc(Nc3cc(F)c4[nH]ncc4c3)nc2N1c1cccc(F)c1 [compound 183, 3-[(7R)-2-[(7-fluoro-1H-indazol-5-yl)amino]-8-(3-fluorophenyl)-7-methyl-6-oxo-7,8-dihydropteridin-5(6H)-yl]benzonitrile] |
| ≤ 0.1 | C[C@@H]1C(=O)N(c2ccc(Cl)c(C#N)c2)c2cnc(Nc3ccc4[nH]ncc4c3)nc2N1C1CCCCC1 [compound 105, 2-chloro-5-[(7R)-8-cyclohexyl-2-(1H-indazol-5-ylamino)-7-methyl-6-oxo-7,8-dihydropteridin-5(6H)-yl]benzonitrile] |
| ≤ 0.1 | C[C@@H]1C(=O)N(c2cccc([S+](C)[O-])c2)c2cnc(Nc3ccc4[nH]ncc4c3)nc2N1C1CCCCC1 (stereo partly drawn) [compound 114, (7R)-8-cyclohexyl-2-(1H-indazol-5-ylamino)-7-methyl-5-[3-(methylsulfinyl)phenyl]-7,8-dihydropteridin-6(5H)-one] |
| > 1 | CC(C)CCN1c2nc(N[C@H]3CC[C@H](O)CC3)ncc2N(c2ccccc2)C(=O)C1C (relative stereo) [Example 11, 2-[(trans-4-hydroxycyclohexyl)amino]-7-methyl-8-(3-methylbutyl)-5-phenyl-7,8-dihydropteridin-6(5H)-one] |
| ≤ 0.1 | CC(C)CCN1c2nc(Nc3cc(F)c4[nH]ncc4c3)ncc2N(c2ccc(OC(C)C)c(C#N)c2)C(=O)[C@H]1C [Example 93, 5-[(7R)-2-[(7-fluoro-1H-indazol-5-yl)amino]-7-methyl-8-(3-methylbutyl)-6-oxo-7,8-dihydropteridin-5(6H)-yl]-2-(propan-2-yloxy)benzonitrile] |
| ≤ 0.1 | CO[C@H]1CC[C@@H](N2c3nc(Nc4ccc5[nH]c(=O)oc5c4)ncc3N(c3cccc(C#N)c3)C(=O)[C@H]2C)CC1 [compound 228, 3-[(7R)-8-(cis-4-methoxycyclohexyl)-7-methyl-6-oxo-2-[(2-oxo-2,3-dihydro-1,3-benzoxazol-6-yl)amino]-7,8-dihydropteridin-5(6H)-yl]benzonitrile] |
| ≤ 0.1 | C[C@@H]1C(=O)N(c2ccc(N3CCCCC3)nc2)c2cnc(Nc3cc(F)c4[nH]ncc4c3)nc2N1C1CCCCC1 [compound 142, (7R)-8-cyclohexyl-2-[(7-fluoro-1H-indazol-5-yl)amino]-7-methyl-5-[6-(piperidin-1-yl)pyridin-3-yl]-7,8-dihydropteridin-6(5H)-one] |
| ≤ 0.1 | C[C@@H]1C(=O)N(c2ccc(C(=O)O)cc2)c2cnc(Nc3ccc4[nH]ncc4c3)nc2N1C1CCCCC1 [Example 63, 4-[(7R)-8-cyclohexyl-2-(1 H-indazol-5-ylamino)-7-methyl-6-oxo-7,8-dihydropteridin-5(6H)-yl]benzoic acid] |
| ≤ 0.1 | N#Cc1cccc(N2C(=O)[C@@H](CO)N(C3CCCC3)c3nc(Nc4cc(F)c5[nH]ncc5c4)ncc32)c1 [Example 218, 3-[(7R)-8-cyclopentyl-2-[(7-fluoro-1H-indazol-5-yl)amino]-7-(hydroxymethyl)-6-oxo-7,8-dihydropteridin-5(6H)-yl]benzonitrile] |
| ≤ 0.1 | N#Cc1cccc(N2C(=O)[C@@H](CO)N(C3CCCC3)c3nc(Nc4ccc5[nH]ncc5c4)ncc32)c1 [Example 220, 3-[(7R)-8-cyclopentyl-7-(hydroxymethyl)-2-(1H-indazol-5-ylamino)-6-oxo-7,8-dihydropteridin-5(6H)-yl]benzonitrile] |
| ≤ 0.1 | C[C@@H]1C(=O)N(c2cccnc2)c2cnc(Nc3ccc4[nH]c(=O)oc4c3)nc2N1C1CCCCC1 [compound 151, (7R)-8-cyclohexyl-7-methyl-2-[(2-oxo-2,3-dihydro-1,3-benzoxazol-6-yl)amino]-5-(pyridin-3-yl)-7,8-dihydropteridin-6(5H)-one] |
| ≤ 0.1 | COc1ccc(N2C(=O)[C@@H](C)N(C3CCC(F)(F)CC3)c3nc(Nc4cc(F)c5[nH]c(=O)oc5c4)ncc32)cc1C#N [compound 281, 5-[(7R)-8-(4,4-difluorocyclohexyl)-2-[(4-fluoro-2-oxo-2,3-dihydro-1,3-benzoxazol-6-yl)amino]-7-methyl-6-oxo-7,8-dihydropteridin-5(6H)-yl]-2-methoxybenzonitrile] |
| ≤ 0.1 | CO[C@H]1CC[C@H](N2c3nc(Nc4cc(F)c5[nH]ncc5c4)ncc3N(c3ccc(N4CCN(C)CC4)nc3)C(=O)[C@H]2C)CC1 [compound 233, (7R)-2-[(7-fluoro-1H-indazol-5-yl)amino]-8-(trans-4-methoxycyclohexyl)-7-methyl-5-[6-(4-methylpiperazin-1-yl)pyridin-3-yl]-7,8-dihydropteridin-6(5H)-one] |
| ≤ 0.1 | CC[C@@H]1C(=O)N(c2ccc(OC)c(F)c2)c2cnc(Nc3cc(F)c4[nH]ncc4c3)nc2N1C1CCCCC1 [compound 294, (7R)-8-cyclohexyl-7-ethyl-2-[(7-fluoro-1H-indazol-5-yl)amino]-5-(3-fluoro-4-methoxyphenyl)-7,8-dihydropteridin-6(5H)-one] |
| ≤ 0.1 | C[C@@H]1C(=O)N(c2cccc(C#N)c2)c2cnc(Nc3cc(F)c(O)c(F)c3)nc2N1C1CCOCC1 [compound 194, 3-[(7R)-2-[(3,5-difluoro-4-hydroxyphenyl)amino]-7-methyl-6-oxo-8-(tetrahydro-2H-pyran-4-yl)-7,8-dihydropteridin-5(6H)-yl]benzonitrile] |
| ≤ 0.1 | C[C@@H]1C(=O)N(c2cccc(F)c2)c2cnc(Nc3cc(F)c4[nH]ncc4c3)nc2N1C1CCC(F)(F)CC1 [compound 263, (7R)-8-(4,4-difluorocyclohexyl)-2-[(7-fluoro-1H-indazol-5-yl)amino]-5-(3-fluorophenyl)-7-methyl-7,8-dihydropteridin-6(5H)-one] |
| ≤ 0.1 | C[C@@H]1C(=O)N(c2ccc[n+]([O-])c2)c2cnc(Nc3cc(F)c4[nH]ncc4c3)nc2N1C1CCC(C)(C)CC1 [compound 304, (7R)-8-(4,4-dimethylcyclohexyl)-2-[(7-fluoro-1H-indazol-5-yl)amino]-7-methyl-5-(1-oxidopyridin-3-yl)-7,8-dihydropteridin-6(5H)-one] |
| ≤ 0.1 | COc1ccc(N2C(=O)[C@@H](C)N(C3CCC(F)(F)CC3)c3nc(Nc4cc(F)c5[nH]ncc5c4)ncc32)cc1OC [compound 262, (7R)-8-(4,4-difluorocyclohexyl)-5-(3,4-dimethoxyphenyl)-2-[(7-fluoro-1H-indazol-5-yl)amino]-7-methyl-7,8-dihydropteridin-6(5H)-one] |
| ≤ 0.1 | CC(C)CCN1c2nc(Nc3cc(F)c4[nH]ncc4c3)ncc2N(c2cccc(C#N)c2)C(=O)[C@H]1C [Example 86, 3-[(7R)-2-[(7-fluoro-1H-indazol-5-yl)amino]-7-methyl-8-(3-methylbutyl)-6-oxo-7,8-dihydropteridin-5(6H)-yl]benzonitrile] |
| ≤ 0.1 | COc1cccc(N2c3nc(Nc4cc(F)c5[nH]ncc5c4)ncc3N(c3cccc(C#N)c3)C(=O)[C@H]2C)c1 [compound 181, 3-[(7R)-2-[(7-fluoro-1H-indazol-5-yl)amino]-8-(3-methoxyphenyl)-7-methyl-6-oxo-7,8-dihydropteridin-5(6H)-yl]benzonitrile] |

| SMILES | IC50 [µM] |
| --- | --- |
| CCOP(=O)(Cc1ccc(Nc2ncc3c(n2)N(CCC(C)C)C(C)C(=O)N3c2ccccc2)cc1)OCC (stereo not shown) [Example 4, diethyl (4-{[7-methyl-8-(3-methylbutyl)-6-oxo-5-phenyl-5,6,7,8-tetrahydropteridin-2-yl]amino}benzyl)phosphonate] | > 1 |
